Columns and labels:
[1] = target: T1, TGR5 (NCI-H716 cell line) (Homo sapiens, UniProt Q8TDU6); experiment: NCI-H716 cAMP Agonist EC50 Determination
T1 sequence (Q8TDU6 1-330): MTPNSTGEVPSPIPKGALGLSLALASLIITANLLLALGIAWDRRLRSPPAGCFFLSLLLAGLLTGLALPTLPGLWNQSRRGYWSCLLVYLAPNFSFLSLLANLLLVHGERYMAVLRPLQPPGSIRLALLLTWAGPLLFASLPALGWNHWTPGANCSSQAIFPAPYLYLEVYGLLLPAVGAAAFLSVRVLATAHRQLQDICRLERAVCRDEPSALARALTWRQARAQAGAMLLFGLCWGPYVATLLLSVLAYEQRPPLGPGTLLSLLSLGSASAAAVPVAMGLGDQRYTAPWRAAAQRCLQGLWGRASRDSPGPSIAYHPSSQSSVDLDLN

[2] = target: T2, TGR5 (STC1 cell line) (Mus musculus, UniProt Q80SS6); experiment: STC1 cAMP Agonist EC50 Determination
T2 sequence (Q80SS6 1-329): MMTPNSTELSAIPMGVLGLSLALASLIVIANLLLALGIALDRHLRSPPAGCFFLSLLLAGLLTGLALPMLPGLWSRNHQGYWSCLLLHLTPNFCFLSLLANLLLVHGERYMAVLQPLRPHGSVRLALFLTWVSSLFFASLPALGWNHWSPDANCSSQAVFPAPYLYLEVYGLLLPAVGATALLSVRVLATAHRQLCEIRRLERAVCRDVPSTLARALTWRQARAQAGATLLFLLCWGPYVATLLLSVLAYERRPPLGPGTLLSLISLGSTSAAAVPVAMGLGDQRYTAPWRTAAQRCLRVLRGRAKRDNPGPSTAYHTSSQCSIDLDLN
Description: Cell stocks were maintained and grown in a sub-confluent state using standard cell culture procedures. The day before the experiment, the cells were harvested with non-enzymatic cell dissociation buffer and resuspended in complete growth media at 4E5 c/ml. […] The seeded plates were incubated overnight at 37° C.
On the day of the experiment, Assay Buffer containing: HBSS with Ca^2+and Mg^2+; 5 μM HEPES; 0.1% BSA; and, 0.5 μM IBMX was prepared. The growth medium was washed from the cell plates and replaced with 20 μL of Assay Buffer. […] The reaction was stopped by the addition of 20 μL 0.1% Formic Acid to all wells. Sixty minutes later 30 μL 3 M deuterated AMP was added to all wells (as a control for volume addition to the mass spec). Plates were mixed on a plate shaker for 1 min and centrifugated (5 min 3000 RPMs no brakes).
Plates were run on a 4000 QTrap triple-quadrapole Mass spectrometer in positive ion mode coupled with a Biocius RapidFire 300is. […] Two ions (cAMP and deuterated AMP were measured using Multiple Reaction Monitoring (MRM) in positive ion mode and the area under the curve (AUC) was determined for each of the ions.
The data from the Mass Spec/Rapid Plate AUC for cAMP and deuterated AMP were imported to an Excel worksheet. A Normalized signal (NS) was generated for each well=(cAMP AUC for the well/deut AMP AUC for the well)*average deut AMP AUC for the plate). nM cAMP was calculated for each well from the cAMP standard curves located on each plate by first calculating the slope and deriving the intercept (b).
EC50 values were determined from a 4-point fit (Hill equation) of a single 11-point compound dosing.

| Compound | EC50 [1] | EC50 [2] |
| --- | --- | --- |
| CCO/C=C/c1cc(F)c(CSc2nc3c(n2-c2ccc(F)cc2)C(C)(c2ccc(OC)c(OC)c2)CCC3)c(F)c1 (stereo not shown) [Example 110, (E)-7-(3,4-dimethoxyphenyl)-2-((4-(2-ethoxyvinyl)-2,6-difluorobenzyl)thio)-1-(4-fluorophenyl)-7-methyl-4,5,6,7-tetrahydro-1H-benzo[d]imidazole] | 1.18 µM | 0.45 µM |
| COc1ccc(C2(C)CCCc3nc(SCc4c(F)cc(CCN(C)C)cc4F)n(-c4ccc(F)cc4)c32)cc1OC (stereo not shown) [Example 111, 2-(4-(((7-(3,4-dimethoxyphenyl)-1-(4-fluorophenyl)-7-methyl-4,5,6,7-tetrahydro-1H-benzo[d]imidazol-2-yl)thio)methyl)-3,5-difluorophenyl)-N,N-dimethylethanamine] | 1.41 µM | 0.2 µM |
| COc1ccc(C2(C)CCCc3nc(SCc4c(Cl)cccc4Cl)n(-c4ccc(F)cc4)c32)cc1OC (stereo not shown) [Example 114, 2-((2,6-dichlorobenzyl)thio)-7-(3,4-dimethoxyphenyl)-1-(4-fluorophenyl)-7-methyl-4,5,6,7-tetrahydro-1H-benzo[d]imidazole] | 25.7 µM | 1.64 µM |
| COc1ccc(C2(C)CCCc3nc(SCc4c(F)cccc4[N+](=O)[O-])n(-c4ccc(F)cc4)c32)cc1OC (stereo not shown) [Example 115, 7-(3,4-dimethoxyphenyl)-2-((2-fluoro-6-nitrobenzyl)thio)-1-(4-fluorophenyl)-7-methyl-4,5,6,7-tetrahydro-1H-benzo[d]imidazole] | 2.6 µM | 0.22 µM |
| COc1cc(C2(C)CCCc3nc(SCc4c(F)cc(C(=O)O)cc4F)n(-c4ccc(F)cc4)c32)ccc1F (stereo not shown) [Example 120, 3,5-difluoro-4-(((7-(4-fluoro-3-methoxyphenyl)-1-(4-fluorophenyl)-7-methyl-4,5,6,7-tetrahydro-1H-benzo[d]imidazol-2-yl)thio)methyl)benzoic acid] | > 50 µM | 1.18 µM |
| COc1cc(C2(C)CCCc3nc(SCc4c(F)cc(-c5nnn[nH]5)cc4F)n(-c4ccc(F)cc4)c32)ccc1F (stereo not shown) [Example 121, 2-((2,6-difluoro-4-(1H-tetrazol-5-yl)benzyl)thio)-7-(4-fluoro-3-methoxyphenyl)-1-(4-fluorophenyl)-7-methyl-4,5,6,7-tetrahydro-1H-benzo[d]imidazole] | > 50 µM | 3.11 µM |
| COc1cc(C2(C)CCCc3nc(SCc4c(F)cc(C(=O)N5CCOCC5)cc4F)n(-c4ccc(F)cc4)c32)ccc1F (stereo not shown) [Example 122, (3,5-difluoro-4-(((7-(4-fluoro-3-methoxyphenyl)-1-(4-fluorophenyl)-7-methyl-4,5,6,7-tetrahydro-1H-benzo[d]imidazol-2-yl)thio)methyl)phenyl) (morpholino)methanone] | 18.8 µM | 0.09 µM |
| COc1cc(C2(C)CCCc3nc(SCc4c(F)cc(C(=O)NCCOCCOCCOCCO)cc4F)n(-c4ccc(F)cc4)c32)ccc1F (stereo not shown) [Example 123, 3,5-difluoro-4-(((7-(4-fluoro-3-methoxyphenyl)-1-(4-fluorophenyl)-7-methyl-4,5,6,7-tetrahydro-1H-benzo[d]imidazol-2-yl)thio)methyl)-N-(2-(2-(2-(2-hydroxyethoxy)ethoxy)ethoxy)ethyl) benzamide] | 17 µM | 0.05 µM |
| COc1cc(C2(C=O)CCCc3nc(SCc4c(F)cccc4Cl)n(-c4ccc(F)cc4)c32)ccc1Cl (stereo not shown) [Example 130, 4-(4-chloro-3-methoxyphenyl)-2-(2-chloro-6-fluorobenzylthio)-3-(4-fluorophenyl)-4,5,6,7-tetrahydro-3H-benzo[d]imidazole-4-carbaldehyde trifluoroacetic acid] | > 50 µM | 14.1 µM |
| COc1cc(C2OCCc3nc(SCc4c(F)cc(OCCOCCOCCCl)cc4F)n(-c4ccc(F)cc4)c32)ccc1Cl (stereo not shown) [Example 133, 4-(4-chloro-3-methoxyphenyl)-2-((4-(2-(2-(2-chloroethoxy)ethoxy)ethoxy)-2,6-difluorobenzyl)thio)-3-(4-fluorophenyl)-3,4,6,7-tetrahydropyrano[3,4-d]imidazole] | > 50 µM | 6.07 µM |
| C=C1COC(c2ccc(OC)c(OC)c2)c2c1nc(SCc1c(F)cccc1Cl)n2-c1ccc(F)cc1 (stereo not shown) [Example 136, 2-((2-chloro-6-fluorobenzyl)thio)-4-(3,4-dimethoxyphenyl)-3-(4-fluorophenyl)-7-methylene-3,4,6,7-tetrahydropyrano[3,4-d]imidazole] | > 50 µM | 1.53 µM |
| C=C1COC(c2ccc(F)c(OC)c2)c2c1nc(SCc1c(F)cccc1Cl)n2-c1ccc(F)cc1 (stereo not shown) [Example 138, 4-(4-Fluoro-3-methoxyphenyl)-2-((2-chloro-6-fluorobenzyl)thio)-3-(4-fluorophenyl)-7-methylene-3,4,6,7-tetrahydropyrano[3,4-d]imidazole] | > 50 µM | 3.26 µM |

The next lines start with the values.

| EC50 [1] | EC50 [2] | Compound |
| --- | --- | --- |
| 0.3 µM | 0.13 µM | COc1ccc(C2(C)CCCc3nc(SCc4c(F)cc(CCN5CCOCC5)cc4F)n(-c4ccc(F)cc4)c32)cc1OC (stereo not shown) [Example 112, 4-(4-(((7-(3,4-dimethoxyphenyl)-1-(4-fluorophenyl)-7-methyl-4,5,6,7-tetrahydro-1H-benzo[d]imidazol-2-yl)thio)methyl)-3,5-difluorophenethyl)morpholine] |
| 2.65 µM | 0.41 µM | COc1ccc(C2(C)CCCc3nc(SCc4nccs4)n(-c4ccc(F)cc4)c32)cc1OC (stereo not shown) [Example 117, 2-(((7-(3,4-dimethoxyphenyl)-1-(4-fluorophenyl)-7-methyl-4,5,6,7-tetrahydro-1H-benzo[d]imidazol-2-yl)thio)methyl)thiazole] |
| > 50 µM | 0.8 µM | COCCNC(=O)c1cc(F)c(CSc2nc3c(n2-c2ccc(F)cc2)C(C)(c2ccc(F)c(OC)c2)CCC3)c(F)c1 (stereo not shown) [Example 124, 3,5-difluoro-4-(((7-(4-fluoro-3-methoxyphenyl)-1-(4-fluorophenyl)-7-methyl-4,5,6,7-tetrahydro-1H-benzo[d]imidazol-2-yl)thio)methyl)-N-(2-methoxyethyl)benzamide] |
| 11 µM | 3.84 µM | Cc1nc2ccc(C3OCCc4nc(SCc5c(F)cccc5Cl)n(-c5ccc(F)cc5)c43)cc2o1 (stereo not shown) [Example 135, 2-((2-chloro-6-fluorobenzyl)thio)-3-(4-fluorophenyl)-4-(2-methylbenzo[d]oxazol-6-yl)-3,4,6,7-tetrahydropyrano[3,4-d]imidazole] |
| > 50 µM | 0.88 µM | C=C1COC(c2ccc(Cl)c(OC)c2)c2c1nc(SCc1c(F)cccc1Cl)n2-c1ccc(F)cc1 (stereo not shown) [Example 137, 4-(4-chloro-3-methoxyphenyl)-2-((2-chloro-6-fluorobenzyl)thio)-3-(4-fluorophenyl)-7-methylene-3,4,6,7-tetrahydropyrano[3,4-d]imidazole] |

From US10077241B2 (Janssen Pharmaceutica NV, priority 2014, dated 2018)
